The values below come from patent US20100272675A1, “METHOD OF ADMINISTERING CONJUGATES” (ENDOCYTE, INC., priority 2007, published 2010).

For data set [1], the system named is 4T1c2 cells (a breast tumor cell line). In words: Effect of ligand conjugates on tumor volume for mice with breast tumor implants. It is filed as in vivo. As for the experimental part: Two regimens were tested. In the first regimen, six to eight-week old (˜20-22 grams) female Balb/c mice were immunized with fluorescein isothiocyanate (FITC)-labeled keyhole limpet hemocyanin (KLH; see FIG. 5) at 35 μg/dose using a saponin adjuvant (e.g., GPI-0100; 100 μg/dose) at days 1, 15, and 29. On day 23, each animal was injected with 2.5×10^5 4T1c2 cells (a breast tumor cell line). Cancer loci were then allowed to grow. From days 42-60, all animals were injected daily ((qd×5)3; days 42-46, 49-53, and 56-60) with either phosphate buffered saline (PBS) or 500 nmol/kg of FITC-conjugated to folic acid via a gamma carboxyl-linked ethylene diamine bridge (see FIG. 4). The animals were injected on the same days with 20,000 U/dose of recombinant human IL-2. The animals were injected (TIW)3 with IL-2 in the same weeks as the animals were injected with folate-FITC.
In the second regimen, six to eight-week old (˜20-22 grams) female Balb/c mice were immunized with fluorescein isothiocyanate (FITC)-labeled keyhole limpet hemocyanin (KLH) at 35 μg/dose using a saponin adjuvant (e.g., GPI-0100; 100 μg/dose) at days 1, 15, and 29. On day 5, each animal was injected with 2.5×10^5 4T1c2 cells. Cancer loci were then allowed to grow. From days 8-50, all animals were injected daily ((qd×5)6) with either phosphate buffered saline (PBS) or 500 nmol/kg of FITC-conjugated to folic acid via a gamma carboxyl-linked ethylene diamine bridge. The animals were injected daily on days 32-50 with 20,000 U/dose of recombinant human IL-2. The animals were injected (TIW)3 with IL-2 in the same weeks as the animals were injected with folate-FITC.
The efficacy of this immunotherapy was then evaluated by monitoring tumor volume as a function of time for folate-FITC treated mice compared to control animals.

Data set [2] can be described thus: Active systemic anaphylaxis assay in guinea pigs immunized against EC90 plus GPI-0100 adjuvant. The data set is classed as in vivo. To be noted: guinea pigs immunized days 1, 8, 15 with EC90 plus 0.5 mg GPI-0100; de-sensitized days 8-12 and 15-19 with EC17 spiked with 10% (mole) Bis-FITC-eda; s.c. challenge day 22. As for the experimental part: Male and female guinea pigs (1 per sex per group) were immunized three times, on Days 1, 8, and 15, with various doses of EC90 plus 0.5 mg GPI-0100. A single dose of test article (EC17+/− Bis-FITC-eda) was administered (s.c.) on Day 22. Guinea pigs were de-sensitized with multiple doses of EC 17 spiked with 10% (mole) Bis-FITC-eda on Days 8-12, and 15-19. On Day 22, these animals were s.c. challenged with the same EC17/Bis-FITC-eda formulation. Clinical observations were generally taken for 1.5-2 hours post challenge. […] Complete macroscopic postmortem examinations were performed on all animals (FIG. 9).

In the case of `Nc1nc2ncc(CNc3ccc(C(=O)NC(CCC(=O)NCCNC(=S)Nc4ccc(-c5c6ccc(=O)cc-6oc6cc(O)ccc56)c(C(=O)O)c4)C(=O)O)cc3)nc2c(=O)[nH]1` (stereo not shown) [EC17], the “tumor volume as a function of time compared to control animals” value in data set [1] (Balb/c mice immunized with KLH-FITC 35 μg/dose + GPI-0100 100 μg/dose, folate-FITC 500 nmol/kg daily plus IL-2 20,000 U/dose, early or late dosing protocol) is reported as “decreased”. The “effect on tumor volume, early dosing protocol” value in data set [1] (folate-FITC 500 nmol/kg daily (qd×5)6 from days 8-50, IL-2 20,000 U/dose days 32-50) is given as “effective in decreasing tumor volume”. Besides, in data set [1] (folate-FITC 500 nmol/kg, late: days 42-60, early: days 8-50, plus IL-2), the “tumor volume, early versus late dosing protocol” value is reported as “similar”. Moreover, the “allergenicity (signs of anaphylaxis after s.c. challenge), effect of early dosing” value in data set [2] is recorded as “reduces allergenicity”.
